Key:
G4F-7 cells = details: cited from earlier work
rat MCH-1 [1] = biological target: T1, rat MCH-1 (Rattus norvegicus, UniProt P97639); assay: Radioligand binding assay at cloned rat MCH1 receptor, [3H]Compound A, Peakr293 cell membranes; set-up: expressed in transfected cells; host or cells: Human embryonic kidney Peak rapid 293 cells (Peakr293), transient, calcium phosphate; membranes; details: 0.08 nM [3H]Compound A, 25° C., 90 minutes
Method: For binding assays, pellets of transfected cells are suspended in ice-cold buffer (20 mM Tris.HCl, 5 mM EDTA, pH 7.4) and homogenized by sonication for 7 sec. The cell lysates are centrifuged at 200×g for 5 min at 4° C. The supernatants are then centrifuged at 40,000×g for 20 min at 4° C. The resulting pellets are washed once in the homogenization buffer and suspended in binding buffer (see methods for radioligand binding). Protein concentrations are determined by the method of Bradford (1976) using bovine serum albumin as the standard. Binding assays are usually performed immediately, however it is possible to prepare membranes in batch and store frozen in liquid nitrogen for future use.
Radioligand binding assays for the rat MCH1 receptor were carried out using plasmid pcDNA3.1-rMCH1-f (ATCC Patent Deposit Designation No. PTA-3505). Plasmid pcDNA3.1-rMCH1-f comprises the regulatory elements necessary for expression of DNA in a mammalian cell operatively linked to DNA encoding the rat MCH1 receptor so as to permit expression thereof. Plasmid pcDNA3.1-rMCH1-f was deposited on Jul. 5, 2001, with the American Type Culture Collection (ATCC), 12301 Parklawn Drive, Rockville, Md. 20852, U.S.A. under the provisions of the Budapest Treaty for the International Recognition of the Deposit of Microorganisms for the Purposes of Patent Procedure and was accorded ATCC Patent Deposit Designation No. PTA-3505.
Human embryonic kidney Peak rapid 293 cells (Peakr293 cells) were transiently transfected with DNA encoding the MCH1 receptor utilizing the calcium phosphate method and cell membranes were prepared as described above. Binding experiments with membranes from Peakr293 cells transfected with the rat MCH1 receptor were performed with 0.08 nM [^3H]Compound A (custom labeled by Amersham) (the synthesis of Compound A is described in detail below) using an incubation buffer consisting of 50 mM Tris pH 7.4, 10 mM MgCl2, 0.16 mM PMSF, 1 mM 1,10 phenantroline and 0.2% BSA. Binding was performed at 25° C. for 90 minutes. Incubations were terminated by rapid vacuum filtration over GF/C glass fiber filters, presoaked in 5% PEI using […] Tris pH 7.4 as wash buffer. In all experiments, nonspecific binding is defined using […] Compound A.
The compounds described above were assayed using cloned rat MCH1.

human MCH-1 = human MCH-1 (Homo sapiens, UniProt Q99705); details: one range printed for rat and human; cited from earlier work
human MCH-1, sequence (Q99705 whole entry): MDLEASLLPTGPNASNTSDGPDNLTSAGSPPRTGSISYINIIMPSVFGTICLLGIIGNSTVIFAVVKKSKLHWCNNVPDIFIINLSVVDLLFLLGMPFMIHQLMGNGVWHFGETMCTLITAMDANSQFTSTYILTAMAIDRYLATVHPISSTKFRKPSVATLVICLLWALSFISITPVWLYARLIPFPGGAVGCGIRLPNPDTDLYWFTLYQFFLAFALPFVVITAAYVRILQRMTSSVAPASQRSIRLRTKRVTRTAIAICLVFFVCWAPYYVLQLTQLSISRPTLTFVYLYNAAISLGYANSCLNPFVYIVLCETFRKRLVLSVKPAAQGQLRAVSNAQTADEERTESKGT

MCH-1 receptor = MCH-1 receptor (Rattus norvegicus, UniProt P97639); details: in vivo; cited from earlier work
MCH-1 receptor, sequence (P97639 whole entry): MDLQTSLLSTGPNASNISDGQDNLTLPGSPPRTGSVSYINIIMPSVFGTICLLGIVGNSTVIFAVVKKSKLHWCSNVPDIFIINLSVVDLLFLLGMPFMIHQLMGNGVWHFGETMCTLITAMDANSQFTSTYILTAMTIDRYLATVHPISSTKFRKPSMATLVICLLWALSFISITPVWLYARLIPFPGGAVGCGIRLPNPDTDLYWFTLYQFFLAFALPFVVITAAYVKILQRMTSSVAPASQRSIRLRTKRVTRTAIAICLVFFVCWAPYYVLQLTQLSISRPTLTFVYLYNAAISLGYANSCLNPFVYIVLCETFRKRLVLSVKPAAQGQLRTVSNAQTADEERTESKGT

rat MCH-1 [2] = biological target: T1, rat MCH-1; details: one range printed for rat and human; cited from earlier work

T1 sequence (P97639 whole entry): as above

Row | Compound | Ki (rat MCH-1 [1]) [nM] | other results
1 | native MCH: Melanin-concentrating hormone, a cyclic peptide |  | Ki (G4F-7 cells; inhibition of radioiodinated [Phe13,Tyr19]-MCH binding): 12 nM
2 | COc1ccc(CCCCC(=O)Nc2cccc(C3CCNCC3)c2)cc1 [Example 5, 5-(4-Methoxyphenyl)-N-[3-(4-Piperidinyl)Phenyl]Pentanamide] | 476 | 
3 | COc1ccccc1CCCCC(=O)Nc1cc(C2CCNCC2)ccc1F [Example 10, N-[2-Fluoro-5-(4-Piperidinyl)Phenyl]-5-(2-Methoxyphenyl)Pentanamide] | 20.9 | 
4 | CN(C)CC1CCc2cc(NC(=O)c3ccc(-c4ccc(F)cc4)cc3)ccc2C1 (centres unmarked) [Example T-226296] |  | affinity for the MCH-1 receptor (human MCH-1): 5 to 9 nM; food intake induced by the intracerebroventricular application of MCH (MCH-1 receptor): inhibit food intake; affinity for the MCH-1 receptor (rat MCH-1 [2]): 5 to 9 nM
5 | O=C(CCCCc1ccccc1)Nc1cccc(C2CCNCC2)c1 [Example 2, 5-Phenyl-N-[3-(4-Piperidinyl)Phenyl]Pentanamide] | 197 | 
6 | O=C(CCCCC(=O)c1ccccc1)Nc1cc(C2CCNCC2)ccc1F [Example 9, N-[2-Fluoro-5-(4-Piperidinyl) Phenyl]-6-Oxo-6-Phenylhexanamide] | 313 | 
7 | O=C(CCCCCNc1ccc(F)c(F)c1)Nc1cccc(C2CCNCC2)c1 [Example 6, 6-(3,4-Difluoroanilino)-N-[3-(4-Piperidinyl) Phenyl]Hexanamide] | 438 | 
8 | COc1ccccc1CCCCC(=O)Nc1cc(C2CCNCC2)c(F)cc1F [Example 11, N-[2,4-Difluoro-5-(4-Piperidinyl)Phenyl]-5-(2-Methoxyphenyl)Pentanamide] | 46.6 | 
9 | O=C(CCc1ccc(Oc2ccc(F)c(F)c2)cc1)Nc1cc(C2CCNCC2)ccc1F [Example 12, 3-[4-(3,4-Difluorophenoxy)Phenyl]-N-[2-Fluoro-5-(4-Piperidinyl)Phenyl]Propanamide] | 33.8 | 
10 | COc1ccccc1CCCCC(=O)Nc1cccc(C2CCNCC2)c1 [Example 1, 5-(2-Methoxyphenyl)-N-[3-(4-Piperidinyl)Phenyl]Pentanamide] | 79.6 | 
11 | O=C(Nc1cccc(C2CCNCC2)c1)c1cccnc1Oc1ccccc1 [Example 4, 2-Phenoxy-N-[3-(4-Piperidinyl) Phenyl]Nicotinamide] | 353 | 
12 | [Phe^13,Tyr^19]-MCH |  | Kd (G4F-7 cells; radioiodinated ligand, G4F-7 cells): 0.118 nM
13 | COC(=O)C1=C(C)NC(=O)N(C(=O)NCCCC(=O)Nc2cccc(C3CCNCC3)c2)C1c1ccc(F)cc1 (centres unmarked) [Example 7, Methyl 4-(4-Fluorophenyl)-6-Methyl-2-Oxo-3-[({4-OXO-4-[3-(4-Piperidinyl)Anilino]Butyl}Amino)Carbonyl]-1,2,3,4-Tetrahydro-5-Pyrimidinecarboxylate] | 142 | 
14 | O=C(CCCCC(=O)c1ccccc1)Nc1cccc(C2CCNCC2)c1 [Example 3, 6-Oxo-6-Phenyl-N-[3-(4-Piperidinyl)Phenyl]Hexanamide] | 1100 | 
15 | α-MSH |  | inhibition of binding (G4F-7 cells; inhibition of radioiodinated [Phe13,Tyr19]-MCH binding, in words): not inhibited

— patent US7473698B2, “Secondary amino anilinic piperidines as MCH1 antagonists and uses thereof” (H. Lunbeck A/S, priority 2003, dated 2009)
